Reference: publication PMC6461495 (ACS infectious diseases, 2019)

System: synchronous late-stage P. falciparum iRBC
Type: cell-based, Plasmodium falciparum CS2
Conditions: late-stage iRBC, 1, 2, 5, 10, 15 or 20 μM, 24 h post-treatment, flow cytometry

FAM-βAla-ILGST*LKG*AQQTSAFLK (sidechain bridge or staple) [JDD scramble]
effect on parasite viability at any concentration tested: no effect on parasite viability
